Laboratory results from patent US20130245110A1, “USE FOR CANNABINOIDS” (priority 2008, published 2013).

Columns and labels:
C57B1/6 ob/ob mouse = assay: Plasma triglycerides; format: in vivo; settings: ob/ob mice; CBD given on its own (3.0 mg/kg)
Experimental: The following are a battery of tests used to elicit the effects of drugs on diseases including type I or II diabetes, obesity, dyslipidaemia, related metabolic disorders and cardiovascular disease. • a) Body weight: Bodyweights of all mice were measured twice weekly during the study. • b) Food intake: Food intake was measured by weight difference taking account of food wastage in the bottom of the cage. • c) Measurement of water consumption: Water intake was calculated daily for each animal, during the treatment period, by weight difference of the water bottle. • d) Oral Glucose Tolerance Test (OGTT): Glucose was dissolved in water (3 g/10 ml) and given to the mice orally at a rate of 3 g/kg. […] Samples were then analysed automatically using a SpectraMax-250 and SoftMax Pro software. • f) Plasma preparation: Blood was collected for the measurement of i) plasma insulin, ii) cholesterol, iii) free fatty acids or iv) triglyceride concentration. • i. Plasma insulin analysis: Plasma insulin was measured using 5 μl of plasma, compared with a mouse insulin standard using a 96-well micro-assay plate • ii. […] The samples were mixed and incubated for 5 minutes before reading at dual wavelengths of 500 and 660 nm. • iii. Plasma free fatty acids: 5 μl samples of plasma were measured into a 96-well assay plate, to which was added 0.2 ml of reagents NEFA C • iv. […]

NOD mice = settings: 86% in non-treated controls; cited from earlier work
PPARγ = target: T1, PPARγ (Homo sapiens, UniProt P37231); assay: Transcriptional transactivation assay (luciferase reporter gene 3xPPRE TK luc); format: cell-based; settings: any concentration tested
T1 construct: expressed in transfected cells
T1 sequence (P37231 1-505): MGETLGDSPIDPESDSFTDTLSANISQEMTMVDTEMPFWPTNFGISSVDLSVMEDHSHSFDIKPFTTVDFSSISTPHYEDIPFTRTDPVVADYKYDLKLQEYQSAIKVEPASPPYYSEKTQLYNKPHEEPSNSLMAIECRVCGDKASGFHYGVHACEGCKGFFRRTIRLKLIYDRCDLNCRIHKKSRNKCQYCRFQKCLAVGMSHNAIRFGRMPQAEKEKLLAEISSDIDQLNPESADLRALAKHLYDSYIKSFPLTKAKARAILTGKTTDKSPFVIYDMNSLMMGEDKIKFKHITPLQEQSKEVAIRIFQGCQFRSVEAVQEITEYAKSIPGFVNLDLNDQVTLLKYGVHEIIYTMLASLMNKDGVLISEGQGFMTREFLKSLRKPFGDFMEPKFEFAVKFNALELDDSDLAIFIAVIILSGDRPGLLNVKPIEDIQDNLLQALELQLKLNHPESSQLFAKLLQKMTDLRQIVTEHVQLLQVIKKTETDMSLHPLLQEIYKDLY
T1 sequence (P19793 1-462 partner): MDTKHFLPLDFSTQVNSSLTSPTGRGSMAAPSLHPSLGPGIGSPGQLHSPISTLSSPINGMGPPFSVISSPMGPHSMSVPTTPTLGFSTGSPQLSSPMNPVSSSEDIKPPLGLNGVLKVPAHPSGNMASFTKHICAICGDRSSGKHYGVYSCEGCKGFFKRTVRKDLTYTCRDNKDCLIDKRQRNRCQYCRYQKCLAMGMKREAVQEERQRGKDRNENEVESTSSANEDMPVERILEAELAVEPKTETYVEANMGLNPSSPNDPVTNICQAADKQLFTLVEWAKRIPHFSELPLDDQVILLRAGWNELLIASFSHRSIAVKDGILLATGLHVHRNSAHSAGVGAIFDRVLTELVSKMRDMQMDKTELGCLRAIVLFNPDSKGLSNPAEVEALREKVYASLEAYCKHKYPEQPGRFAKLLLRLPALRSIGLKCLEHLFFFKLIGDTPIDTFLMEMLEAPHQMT
Experimental: In vitro vascular studies were carried out in rat isolated aortae by wire myography. PPARγ activation was investigated using reporter gene assays, a PPARγ competition-binding assay and an adipogenesis assay.

Compound | Plasma triglycerides (C57B1/6 ob/ob mouse) | Incidence of diabetes (NOD mice) [%] | PPARγ transcriptional activity (PPARγ)
C=C(C)[C@@H]1CCC(C)=C[C@H]1c1c(O)cc(CCCCC)cc1O [CBD, cannabidiol] | no effect on plasma triglycerides | 30 | –
CCCc1cc(O)c2c(c1)OC(C)(C)[C@@H]1CCC(C)=C[C@@H]21 [THCV, tetrahydrocannabivarin] | – | – | no effect
